The values below come from patent US20070154549A1, “Multiparticulate formulations for oral delivery” (VECTURA LTD, priority 2003, published 2007).

The nature of the data set: Dissolution studies / drug release. Format: physicochemical. The note with it: levels of hydrophobic melt binder of up to 20%.

Counter-ions that a name gives are not always drawn.

Take `CN(C)CCC(c1ccc(Cl)cc1)c1ccccn1` (stereo not shown) [chlorpheniramine maleate]: the drug release entry is given as “do not delay drug release”.
